According to ChEMBL document CHEMBL1201862, “PubChem BioAssay data set” (2004):
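How tested: cells in 96-well plates exposed to compound for 48 hours at five concentrations. Abbreviation: GI50, concentration required for 50% inhibition of growth.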 The source made the active and inactive calls. Cut-off read from the data, not from the text of the source: active = GI50 up to about 1.1 µM and inactive = higher.

Key:
Experiment in all cases: inhibition of tumour cell growth, NCI panel, 48 h
[1] = tested on: UACC-257
[2] = tested on: HOP-62
[3] = tested on: MOLT-4
[4] = tested on: NCI-H23
[5] = tested on: K562
[6] = tested on: MDA-MB-231
[7] = tested on: IGROV-1
[8] = tested on: TK-10
[9] = tested on: NCI/ADR-RES
[10] = tested on: NCI-H460
[11] = tested on: MCF7
[12] = tested on: CCRF-CEM
[13] = tested on: SNB-19
[14] = tested on: Hs-578T
[15] = tested on: PC-3
[16] = tested on: KM12
[17] = tested on: OVCAR-5
[18] = tested on: LOX IMVI
[19] = tested on: SW-620
[20] = tested on: SN12C
[21] = tested on: BT-549
[22] = tested on: 786-0
[23] = tested on: RPMI-8226
[24] = tested on: A498
[25] = tested on: M14
[26] = tested on: U-251
[27] = tested on: NCI-H522
[28] = tested on: MDA-N
[29] = tested on: ACHN
[30] = tested on: HT-29
[31] = tested on: MDA-MB-435
[32] = tested on: CAKI-1
[33] = tested on: OVCAR-4
[34] = tested on: OVCAR-8
[35] = tested on: SK-OV-3
[36] = tested on: HL-60
[37] = tested on: COLO 205
[38] = tested on: EKVX
[39] = tested on: SF-295
[40] = tested on: DU-145
[41] = tested on: T47D
[42] = tested on: OVCAR-3
[43] = tested on: SNB-75
[44] = tested on: SF-268
[45] = tested on: SK-MEL-28
[46] = tested on: Malme-3M
[47] = tested on: SK-MEL-5
[48] = tested on: A549
[49] = tested on: SK-MEL-2
[50] = tested on: SR
[51] = tested on: HCT-15
[52] = tested on: HOP-92
[53] = tested on: RXF 393
[54] = tested on: UACC-62
[55] = tested on: HCT-116
[56] = tested on: UO-31
[57] = tested on: SF-539
[58] = tested on: NCI-H226
[59] = tested on: HCC 2998

For `O=C(NNC(=O)c1ccncc1)c1ccncc1`, the GI50 [1] was > 100 µM (inactive), the GI50 [2] was > 100 µM (inactive) and the GI50 [3] was > 100 µM (inactive). For the same molecule, the GI50 [4] was > 100 µM (inactive), the GI50 [5] was > 100 µM (inactive) and the GI50 [6] was > 100 µM (inactive). The GI50 [7] was > 100 µM (inactive), the GI50 [8] was > 100 µM (inactive) and the GI50 [9] was > 100 µM (inactive). For the same molecule, the GI50 [10] was > 100 µM (inactive), the GI50 [11] was > 100 µM (inactive) and the GI50 [12] was > 100 µM (inactive). For the same molecule, the GI50 [13] was > 100 µM (inactive), the GI50 [14] was > 100 µM (inactive) and the GI50 [15] was > 100 µM (inactive). For the same molecule, the GI50 [16] was > 100 µM (inactive), the GI50 [17] was > 100 µM (inactive) and the GI50 [18] was > 100 µM (inactive). For the same molecule, the GI50 [19] was > 100 µM (inactive), the GI50 [20] was > 100 µM (inactive) and the GI50 [21] was > 100 µM (inactive). The GI50 [22] was > 100 µM (inactive), the GI50 [23] was > 100 µM (inactive) and the GI50 [24] was > 100 µM (inactive). For the same molecule, the GI50 [25] was > 100 µM (inactive), the GI50 [26] was > 100 µM (inactive) and the GI50 [27] was > 100 µM (inactive). For the same molecule, the GI50 [28] was > 100 µM (inactive), the GI50 [29] was > 100 µM (inactive) and the GI50 [30] was > 100 µM (inactive). The GI50 [31] was > 100 µM (inactive), the GI50 [32] was > 100 µM (inactive) and the GI50 [33] was > 100 µM (inactive). The GI50 [34] was > 100 µM (inactive), the GI50 [35] was > 100 µM (inactive) and the GI50 [36] was > 100 µM (inactive). For the same molecule, the GI50 [37] was > 100 µM (inactive), the GI50 [38] was > 100 µM (inactive) and the GI50 [39] was > 100 µM (inactive). The GI50 [40] was > 100 µM (inactive), the GI50 [41] was > 100 µM (inactive) and the GI50 [42] was > 100 µM (inactive). The GI50 [43] was > 100 µM (inactive), the GI50 [44] was > 100 µM (inactive) and the GI50 [45] was > 100 µM (inactive). The GI50 [46] was > 100 µM (inactive), the GI50 [47] was > 100 µM (inactive) and the GI50 [48] was > 100 µM (inactive). The GI50 [49] was > 100 µM (inactive), the GI50 [50] was > 100 µM (inactive) and the GI50 [51] was over 100 µM. The GI50 [52] was > 100 µM (inactive), the GI50 [53] was > 100 µM (inactive) and the GI50 [54] was > 100 µM (inactive). For the same molecule, the GI50 [55] was > 100 µM (inactive) and the GI50 [56] was > 100 µM (inactive).
With `Cc1ccc(-n2c(O)c(C#N)c3[nH]nc(N)c3c2=O)cc1` the GI50 [57] was > 100 µM (inactive), the GI50 [1] was > 100 µM (inactive) and the GI50 [3] was > 100 µM (inactive). The GI50 [4] was > 100 µM (inactive), the GI50 [5] was > 100 µM (inactive) and the GI50 [6] was > 100 µM (inactive). The GI50 [7] was > 100 µM (inactive), the GI50 [8] was > 100 µM (inactive) and the GI50 [9] was > 100 µM (inactive). For the same molecule, the GI50 [10] was > 100 µM (inactive), the GI50 [11] was > 100 µM (inactive) and the GI50 [12] was > 100 µM (inactive). For the same molecule, the GI50 [13] was > 100 µM (inactive), the GI50 [14] was > 100 µM (inactive) and the GI50 [15] was > 100 µM (inactive). For the same molecule, the GI50 [16] was > 100 µM (inactive), the GI50 [17] was > 100 µM (inactive) and the GI50 [18] was > 100 µM (inactive). The GI50 [19] was > 100 µM (inactive), the GI50 [20] was > 100 µM (inactive) and the GI50 [21] was > 100 µM (inactive). For the same molecule, the GI50 [22] was > 100 µM (inactive), the GI50 [23] was > 100 µM (inactive) and the GI50 [24] was > 100 µM (inactive). For the same molecule, the GI50 [25] was > 100 µM (inactive), the GI50 [26] was > 100 µM (inactive) and the GI50 [27] was > 100 µM (inactive). The GI50 [28] was > 100 µM (inactive), the GI50 [58] was > 100 µM (inactive) and the GI50 [30] was > 100 µM (inactive). The GI50 [31] was > 100 µM (inactive), the GI50 [32] was > 100 µM (inactive) and the GI50 [33] was > 100 µM (inactive). The GI50 [34] was > 100 µM (inactive), the GI50 [35] was > 100 µM (inactive) and the GI50 [36] was > 100 µM (inactive). The GI50 [37] was > 100 µM (inactive), the GI50 [38] was > 100 µM (inactive) and the GI50 [40] was > 100 µM (inactive). The GI50 [41] was > 100 µM (inactive), the GI50 [42] was > 100 µM (inactive) and the GI50 [59] was > 100 µM (inactive). For the same molecule, the GI50 [43] was > 100 µM (inactive), the GI50 [44] was > 100 µM (inactive) and the GI50 [45] was > 100 µM (inactive). For the same molecule, the GI50 [46] was > 100 µM (inactive), the GI50 [47] was > 100 µM (inactive) and the GI50 [48] was > 100 µM (inactive). The GI50 [49] was > 100 µM (inactive), the GI50 [50] was > 100 µM (inactive) and the GI50 [51] was over 100 µM. For the same molecule, the GI50 [53] was > 100 µM (inactive), the GI50 [54] was > 100 µM (inactive) and the GI50 [55] was > 100 µM (inactive). For the same molecule, the GI50 [56] was > 100 µM (inactive).
